Data as given in patent US8435978B2, “Substituted sulfonamide compounds” (Gruenenthal GmbH, priority 2006, dated 2013).
Structures can show the parent of a compound that is named as a salt.

How the values were obtained:
[1] = target: T1, human B1R receptor (Homo sapiens, UniProt P46663); experiment: Functional study on the bradykinin receptor 1 (B1R), FLIPR Ca2+ assay, hB1R cells; format: cell-based; conditions: CHO-K1, test substance 10 μM, agonist Lys-Des-Arg9-bradykinin 0.5 nM, % inhibition compared with the maximum achievable inhibition, read-out: B1R Antagonism, human [10 μM] % Inhibition
T1 construct: host or cells: CHO K1 cells (Chinese hamster ovary), stably transfected
T1 sequence (P46663 1-353): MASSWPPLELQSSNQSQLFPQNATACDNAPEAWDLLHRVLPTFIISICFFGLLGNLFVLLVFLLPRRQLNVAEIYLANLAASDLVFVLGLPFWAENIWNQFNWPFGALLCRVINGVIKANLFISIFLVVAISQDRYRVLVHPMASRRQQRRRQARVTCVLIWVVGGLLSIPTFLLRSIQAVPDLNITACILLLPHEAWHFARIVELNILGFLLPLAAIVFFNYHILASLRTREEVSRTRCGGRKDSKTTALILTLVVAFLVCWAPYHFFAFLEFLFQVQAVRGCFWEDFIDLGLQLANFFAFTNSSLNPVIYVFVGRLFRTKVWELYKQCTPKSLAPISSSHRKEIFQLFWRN
Procedure, shortened: (§1)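 Readout: peak Fluo-4 Ca2+ fluorescence, FLIPR. Stable CHO K1 hB1R or rB1R cells; cpd 10 μM, 10 min preincubation, then agonist (hB1R: Lys-Des-Arg9-BK 0.5 nM; rB1R: Des-Arg9-BK 100 nM). Value = % inhibition relative to maximal achievable inhibition.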

[2] = target: T2, B1R receptor of the rat (Rattus norvegicus, UniProt P97583); experiment: Functional study on the bradykinin receptor 1 (B1R), FLIPR Ca2+ assay, rB1R cells; format: cell-based; conditions: CHO-K1, test substance 10 μM, agonist Des-Arg9-bradykinin 100 nM, % inhibition compared with the maximum achievable inhibition, read-out: B1R Antagonism, rat [10 μM] % Inhibition
T2 construct: host or cells: CHO K1 cells (Chinese hamster ovary), stably transfected
T2 sequence (P97583 1-337): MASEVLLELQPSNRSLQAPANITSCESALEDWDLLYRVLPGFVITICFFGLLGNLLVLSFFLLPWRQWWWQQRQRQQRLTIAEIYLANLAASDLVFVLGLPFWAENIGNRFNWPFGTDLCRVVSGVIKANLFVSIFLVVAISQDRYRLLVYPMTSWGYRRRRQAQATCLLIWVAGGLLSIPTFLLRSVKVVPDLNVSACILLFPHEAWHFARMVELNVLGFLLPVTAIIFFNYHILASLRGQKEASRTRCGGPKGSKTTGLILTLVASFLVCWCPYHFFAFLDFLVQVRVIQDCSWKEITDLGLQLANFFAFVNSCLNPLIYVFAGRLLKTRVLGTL
Procedure, shortened: as §1

inhibition at 10 µM [1] [%] | inhibition at 10 µM [2] [%] | SMILES
23.8 | 102 | COc1cc(C)c(S(=O)(=O)N2CCCCC2COCC(=O)NCc2ccccc2N2CCCCC2)c(C)c1 (stereo not drawn) [Example 428, 2-((1-(4-methoxy-2,6-dimethylphenylsulfonyl)piperidin-2-yl)methoxy)-N-(2-(piperidin-1-yl)benzyl)acetamide]
73.3 | 102 | COc1cc(C)c(S(=O)(=O)N2CCCCC2COCC(=O)N2CCN(c3nc4ccccc4s3)CC2)c(C)c1 (stereo not drawn) [Example 526, 1-(4-(benzo[d]thiazol-2-yl)piperazin-1-yl)-2-((1-(4-methoxy-2,6-dimethylphenylsulfonyl)piperidin-2-yl)methoxy)ethanone]
104 | 99.3 | COc1cc(C)c(S(=O)(=O)N2CCCCC2COCC(=O)N(C)C(CN2CCCC2)c2ccccc2)c(C)c1 (stereo not drawn) [Example 241, 2-((1-(4-methoxy-2,6-dimethylphenylsulfonyl)piperidin-2-yl)methoxy)-N-methyl-N-(1-phenyl-2-(pyrrolidin-1-yl)ethyl)acetamide]
65.1 | 89.7 | COc1cc(C)c(S(=O)(=O)N2CCCC2COCC(=O)Nc2ccc3cnn(C)c3c2)c(C)c1 (stereo not drawn) [Example 501, 2-((1-(4-methoxy-2,6-dimethylphenylsulfonyl)pyrrolidin-2-yl)methoxy)-N-(1-methyl-1H-indazol-6-yl)acetamide]
50 | 99.7 | COc1cc(C)c(S(=O)(=O)N2CCCCC2COCC(=O)NCc2ccccc2Oc2cnccn2)c(C)c1 (stereo not drawn) [Example 205, 2-((1-(4-methoxy-2,6-dimethylphenylsulfonyl)piperidin-2-yl)methoxy)-N-(2-(pyrazin-2-yloxy)benzyl)acetamide]
97.7 | 113 | CN1CCN(c2ccc(CNC(=O)COCC3CCCCN3S(=O)(=O)c3c(Cl)cc(Cl)cc3Cl)cc2)CC1 (stereo not drawn) [Example 13, N-[4-(4-methyl-piperazin-1-yl)-benzyl]-2-[1-(2,4,6-trichloro-phenylsulfonyl)-piperidin-2-ylmethoxy]-acetamide]
94.2 | 96.7 | COc1ccccc1N1CCN(C(=O)COCC2CCCCN2S(=O)(=O)c2c(Cl)cccc2Cl)CC1 (stereo not drawn) [Example 498, 2-((1-(2,6-dichlorophenylsulfonyl)piperidin-2-yl)methoxy)-1-(4-(2-methoxyphenyl)piperazin-1-yl)ethanone]
102 | 60.6 | COc1cc(C)c(S(=O)(=O)N2CCCCC2COCC(=O)NCCCN2C(C)CCCC2C)c(C)c1 (stereo not drawn) [Example 260, N-(3-(2,6-dimethylpiperidin-1-yl)propyl)-2-((1-(4-methoxy-2,6-dimethylphenylsulfonyl)piperidin-2-yl)methoxy)acetamide]
85.1 | 98.8 | COc1cc(C)c(S(=O)(=O)N2CCCCC2COCC(=O)NCc2cccc(Oc3cnccn3)c2)c(C)c1 (stereo not drawn) [Example 195, 2-((1-(4-methoxy-2,6-dimethylphenylsulfonyl)piperidin-2-yl)methoxy)-N-(3-(pyrazin-2-yloxy)benzyl)acetamide]
105 | 107 | COc1cc(C)c(S(=O)(=O)N2CCCC2COCC(=O)NCc2ccc(CN3CCCCC3)cc2)c(C)c1 (stereo not drawn) [Example 1, 2-[1-(4-methoxy-2,6-dimethyl-phenylsulfonyl)-pyrrolidin-2-ylmethoxy]-N-(4-piperidin-1-ylmethyl-benzyl)-acetamide]
104 | 104 | COc1cc(C)c(S(=O)(=O)N2CCCC2COCC(=O)N2CCN(Cc3ccc(Br)cc3)CC2)c(C)c1 (stereo not drawn) [Example 350, 1-(4-(4-bromobenzyl)piperazin-1-yl)-2-((1-(4-methoxy-2,6-dimethylphenylsulfonyl)pyrrolidin-2-yl)methoxy)ethanone]
106 | 103 | COc1cc(C)c(S(=O)(=O)N2CCCC2COCC(=O)NCc2ccc(CN3CCCC3)cc2)c(C)c1 (stereo not drawn) [Example 299, 2-((1-(4-methoxy-2,6-dimethylphenylsulfonyl)pyrrolidin-2-yl)methoxy)-N-(4-(pyrrolidin-1-ylmethyl)benzyl)acetamide]

The remaining lines, values behind:

SMILES | inhibition at 10 µM [1] [%] | inhibition at 10 µM [2] [%]
O=C(COCC1CCCCN1S(=O)(=O)c1c(Cl)cccc1Cl)N1CCN(c2ccccn2)CC1 (stereo not drawn) [Example 316, 2-((1-(2,6-dichlorophenylsulfonyl)piperidin-2-yl)methoxy)-1-(4-(pyridin-2-yl)piperazin-1-yl)ethanone] | 82.7 | 98.2
O=C(COCC1CCCCN1S(=O)(=O)c1c(Cl)cccc1Cl)N1CCN(CCO)CC1 (stereo not drawn) [Example 552, 2-((1-(2,6-dichlorophenylsulfonyl)piperidin-2-yl)methoxy)-1-(4-(2-hydroxyethyl)piperazin-1-yl)ethanone] | 46.8 | 101
O=C(COCC1CCCN1S(=O)(=O)c1c(Cl)cc(Cl)cc1Cl)N1CCN(CCc2ccccc2)CC1 (stereo not drawn) [Example 329, 1-(4-phenethylpiperazin-1-yl)-2-((1-(2,4,6-trichlorophenylsulfonyl)pyrrolidin-2-yl)methoxy)ethanone] | 105 | 98.2
O=C(COCC1CCCN1S(=O)(=O)c1c(Cl)cccc1Cl)N1CCN(c2ccc(Cl)c(Cl)c2)CC1 (stereo not drawn) [Example 356, 1-(4-(3,4-dichlorophenyl)piperazin-1-yl)-2-((1-(2,6-dichlorophenylsulfonyl)pyrrolidin-2-yl)methoxy)ethanone] | 43 | 103
Cc1ccc2[nH]c(C3CCN(C(=O)COCC4CCCCN4S(=O)(=O)c4c(Cl)cccc4Cl)CC3)nc2c1 (stereo not drawn) [Example 487, 2-((1-(2,6-dichlorophenylsulfonyl)piperidin-2-yl)methoxy)-1-(4-(5-methyl-1H-benzo[d]imidazol-2-yl)piperidin-1-yl)ethanone] | 101 | 99.1
CN1CCC(N2CCN(C(=O)COCC3CCCCN3S(=O)(=O)c3c(Cl)cccc3Cl)CC2)CC1 (stereo not drawn) [Example 141, 2-((1-(2,6-dichlorophenylsulfonyl)piperidin-2-yl)methoxy)-1-(4-(1-methylpiperidin-4-yl)piperazin-1-yl)ethanone dihydrochloride] | 101 | 101
O=C(COCC1CCCN1S(=O)(=O)c1c(Cl)cccc1Cl)NCc1ccc(CN2CCCC2)cc1 (stereo not drawn) [Example 322, 2-((1-(2,6-dichlorophenylsulfonyl)pyrrolidin-2-yl)methoxy)-N-(4-(pyrrolidin-1-ylmethyl)benzyl)acetamide] | 102 | 98.7
COc1ccc(S(=O)(=O)N2CCCCC2COCC(=O)Nc2ccc(N3CCOCC3)c3nonc23)cc1 (stereo not drawn) [Example 556, 2-((1-(4-methoxyphenylsulfonyl)piperidin-2-yl)methoxy)-N-(7-morpholinobenzo[c][1,2,5]oxadiazol-4-yl)acetamide] | 12.1 | 85.6
O=C(COCC1CCCN1S(=O)(=O)c1cc(Cl)sc1Cl)N1CCN(Cc2ccccc2)CC1 (stereo not drawn) [Example 478, 1-(4-benzylpiperazin-1-yl)-2-((1-(2,5-dichlorothiophen-3-ylsulfonyl)pyrrolidin-2-yl)methoxy)ethanone] | 36.2 | 90.2
